Tests used:
[1] = Reaction of TPCPD with cyclooctynes at 50 mM, time to completion; assay type: physicochemical; details: 50 mM concentration
[2] = test system: RAW cells; experiment: WST-1 cytotoxicity test; assay type: cell-based, mouse
Procedure: In order to assess the cytotoxic effect of the reactants, 1 and 6a, as well as product 31, on RAW cells, the cytotoxicity test WST-1 was performed to examine induction by TPCPD (1) and BCN (6a) over varying concentrations and periods of time (FIGS. 3a-c).
Different concentrations of each molecule were assessed: from 0.78 to 100 μM for 1 and 31 and 7.8 to 1000 μM for 6a. Different time points were assessed (1 h, 4 h, 8 h and 24 h). Triton 0.1% was used as a positive control of cytotoxicity and the subsequent value was established as 100% of cytotoxicity.

[3] = Fluorescence properties of the cycloaddition products; assay type: physicochemical; details: for λem emission wavelength / λex excitation wavelength: of the cycloaddition products 44a-44f and 100a; for Φ quantum yield: of the cycloaddition products 44a-44f and 100a in MeOH, quinine sulfate as the standard
[4] = test system: TNF-α; experiment: TNF-α ELISA in LPS treated RAW 264.7 cells pre-treated with CO prodrug; assay type: cell-based, mouse; details: pre-treated 5 h, then LPS 1 h
Procedure: RAW 264.7 cells were seeded in the 48-well plate one day before the experiment.
LPS was used to initialize the inflammatory response in RAW 264.7 cells and trigger the expression of cytokines. RAW 264.7 cells were pre-treated with different concentrations of 10b or 44b product for 5 hours. Thereafter, […] LPS was added with into the cell culture media. For TNF-α test, the cell culture supernatant was collected after 1 hour of LPS treatment. For IL-6 test, the cell culture supernatant was collected after 4 hours of LPS treatment. Cell culture without LPS treatment was used as control.
10a-10d, and 100 with different release rates were chosen to test their inhibitory effect against lipopolysaccharide (LPS) induced TNF-α secretion in RAW 264.7 cells. […] This was followed by the treatment of LPS for another 1 h. Then the cell culture supernatants were subjected to ELISA assay for TNF-α levels.

[5] = CO release kinetics by increase of fluorescence intensity; assay type: physicochemical; details: DMSO/PBS (pH = 7.4) 5:1 at 37° C.
Procedure: Compound 10a was dissolved indifferent solvents including CH2Cl2 (25° C.), CH3CN (25° C.), DMSO (25° C.), DMSO/PBS (10:1, 25° C.), DMSO/PBS (5:1, 25° C.), and DMSO/PBS (5:1, 37° C.) to give a final concentration of around 100 μM, and CO release was monitored by fluorescence intensity at 450 nm. Each experiment was repeated three times independently. The CO release rate (first order reaction rate) in DCM, CH3CN, DMSO, DMSO/PBS (10:1), DMSO/PBS (5:1), and DMSO/PBS (5:1, 37° C.) were different and their individual rate constant was calculated to be 2.3±0.2, 3.6±0.4, 6.6±0.6, 7.7±0.6, 11.0±1.4 and 22.4±3.2 h^−1, respectively. […] The CO release rate increased along with the polarity of the solvent.

[6] = test system: TNBS induced colitis; experiment: TNBS induced colitis in mice; assay type: in vivo
Procedure: Male adult C57BL/6 mice (8-12 weeks, 20-25 g) were obtained from Sichuan University laboratory animal center, and housed in standard conditions with constant temperature (22±2° C.) and 12 h light-dark cycle, free to sterile water and standard food.
TNBS (Trinitrobenzene sulfonic acid) enema was used for colitis induction.^3 Mice were randomly assigned into four groups: sham control group, TNBS model group, 10b treatment group and 44b group. Briefly, mice were fasted for 24 h, and then lightly anesthetized with 1% isoflurane. TNBS (in saline-ethanol, 50:50, v/v) solution 50 μL was infused into the colon using a cannula with the depth of 4 cm from anus. Mice in sham control group received 50 μL vehicle (saline-ethanol, 50:50, v/v). Mice were held with a vertical position for at least 30s after infusion, for sake of homogenous distribution and retention of TNBS. Mice would not be put back to the cage until they wake up and have autonomous respiration.
Drug administration. Vehicle solution (Solutol:saline=30:70), 10b (15 mg/kg) and 44b (15 mg/kg) was i.p. injected 1 hour before model construction; and 24 h, 48 h and 72 h after model construction. Euthanasia was conducted on 1st/3rd/7th day respectively through intraperitoneally injecting of pentobarbital sodium, and samples were removed and analyzed later.
Macroscopic evaluation of colitis damage. Colons were removed quickly and lengths were measured and represented in centimeter. After that, colons were longitudinally excised and carefully washed with ice-cold normal saline. Macroscopic signs of colon damage were evaluated by an experimenter blind to the mice grouping, according to an established semi-quantitative scoring system: Ulcer (0.5 points=0.5 cm); Colonic shortening (1 point≥15%, 2 points≥25%, based on the average length of colons from the control group); Every additional presence of hemorrhage, diarrhea or fecal blood added 1 point to the score. Intestinal wall thickness was measured in millimeter and recorded as well.
Mice were dosed with 10b (15 mg/kg), 44b (15 mg/kg), or the vehicle (solutol/saline=30:70) control by intraperitoneal injection 1 h before the model construction, and then dosed again at 24 h, 48 h and 72 h time points after the model construction; and then sacrificed. Colon was removed for macroscopic evaluation of colitis damage.

[7] = Determination of CO release rates (fluorescence or UV absorbance); assay type: physicochemical; details: DMSO/PBS (4:1) at 37° C.
Procedure: For CO prodrugs with naphthalene scaffold, the CO release rate is easily done by monitoring the fluorescence intensity of the cyclized product. For the others, the CO release rate was determined by employing the UV absorbance difference between the prodrugs and the cyclized product.

[8] = Kinetics of the Diels-Alder reaction of TPCPD with exo-BCN (UV-Vis); assay type: physicochemical
Procedure: Separate solutions of pure TPCPD (1) and pure exo-BCN (6a) (>95-98% by H-NMR) were prepared in HPLC-grade methanol (acetonitrile, 1,2-dichloroethane, dioxane) at room temperature. The stability of TPCPD in methanol (25 μM) was examined by monitoring its absorption maximum at 335 nm. The solutions containing TPCPD (1, 50 μM, 400 μL) and 18-fold excess of exo-BCN (6a, 900 μM, 400 μL) were added into quartz cuvettes, thoroughly mixed and sealed with a PTFE cap. All kinetic runs were triplicates. Curve fitting was operated in Prism5 software.
The reaction between 1 and 6a (Scheme 8) leads to significant changes in the UV-Vis spectrum of TPCPD […] due to its conversion to the cyclization product 31 (FIG. 1a). Therefore, the reaction can be easily monitored.
It was observed that the reaction rate between TPCPD and BCN was moderately sensitive to the reaction solvent. Methanol, acetonitrile, […] (DCE), and dioxane were chosen for the kinetic studies. The reaction appears to be faster in polar solvents than in nonpolar solvents. […] In order to utilize the reaction under physiological conditions, the reaction rate was measured at physiological temperature, 37° C.

[9] = 8 h, within the concentration range studied
[10] = 15 mg/kg i.p., compared to the TNBS group

## OCC1[C@H]2CCC#CCC[C@@H]12 (some centres unmarked) [BCN]
[1]
  time in which reaction with TPCPD finished: ≤ 5 min
[2]; [9]
  cytotoxicity: Neither 6a (FIG. 3b) and nor the product (FIG. 3c) displayed any sign of cytotoxicity
[2]; 24 h, 1 mM
  cytotoxicity: 60%

## CN(CC#C[Si](c1ccccc1)(c1ccccc1)C(C)(C)C)C(=O)C1=C2C(=C(c3ccccc3)C1=O)c1cccc3cccc2c13 [Compound 10d]
[3]
  λem emission wavelength: 456 nm
  λex excitation wavelength: 378 nm
  Φ quantum yield: 0.21
[4]
  LPS-induced TNF-α expression / secretion: suppressed TNF-α secretion, but it did not show any dose-dependent effect
[5]
  k CO release rate: 22.6 ± 0.2 h⁻¹

## C#CCOC(=O)C1=C2C(=C(c3ccccc3)C1=O)c1cccc3cccc2c13 [Compound 10e]
[3]
  λem emission wavelength: 454 nm
  λex excitation wavelength: 367 nm
  Φ quantum yield: 0.14

## C#CCNC(=O)C1=C2C(=C(c3ccccc3)C1=O)c1cccc3cccc2c13 [Compound 10f]
[3]
  λem emission wavelength: 456 nm
  λex excitation wavelength: 370 nm
  Φ quantum yield: 0.18

## OC[C@@H]1[C@H]2CCc3c(c(-c4ccccc4)c(-c4ccccc4)c(-c4ccccc4)c3-c3ccccc3)CC[C@@H]12 [Compound 31]
[2]; [9]
  cytotoxicity: Neither 6a (FIG. 3b) and nor the product (FIG. 3c) displayed any sign of cytotoxicity
[2]; 24 h, within the concentration range tested
  cytotoxicity: not cytotoxic

## CC(C)N1CCc2cc(-c3ccccc3)c3c(c2C1=O)-c1cccc2cccc-3c12 [Compound 44b]
[4]
  LPS-induced TNF-α expression / secretion: did not show any TNF-α suppression effects
[6]; 15 mg/kg i.p. 1 h before and 24, 48, 72 h after TNBS
  survival rate: no similar effects were observed
[6]; [10]
  colon length: no similar effects were observed
  colon thickness: no similar effects were observed
  injury score: no similar effects were observed

## Cc1c2c(c3c(c1-c1ccccc1)-c1cccc4cccc-3c14)C(=O)N(C(C)C)CC2 [Compound 44c]
[4]
  LPS-induced TNF-α expression / secretion: did not show any TNF-α suppression effects

## CN1Cc2c(c3c(c(-c4ccccc4)c2[Si](c2ccccc2)(c2ccccc2)C(C)(C)C)-c2cccc4cccc-3c24)C1=O [Compound 44d]
[4]
  LPS-induced TNF-α expression / secretion: did not show any TNF-α suppression effects

## C#CC(C)OC(=O)C1=C2C(=C(c3ccccc3)C1=O)c1cccc3cccc2c13 (centres unmarked) [Compound 104]
[7]
  K CO release: 0.012 ± 0.0003 h⁻¹

## C#CC(C)(C)OC(=O)C1=C2C(=C(c3ccccc3)C1=O)c1cccc3cccc2c13 [Compound 105]
[7]
  K CO release: 1.28 ± 0.183 h⁻¹

## C#CC(C)NC(=O)C1=C2C(=C(c3ccccc3)C1=O)c1cccc3cccc2c13 (centres unmarked) [Compound 108]
[7]
  K CO release: 0.058 ± 0.003 h⁻¹

## C#CC(C)(C)NC(=O)C1=C2C(=C(c3ccccc3)C1=O)c1cccc3cccc2c13 [Compound 109]
[7]
  K CO release: 3.31 ± 0.28 h⁻¹

## C#CCCN(CCN1CCOCC1)C(=O)C1=C2C(=C(c3ccccc3)C1=O)c1cccc3cccc2c13 [Compound 110]
[7]
  time in which CO release was finished: CO release was finished in 4 h.

## C#CC(C)(C)NC(=O)C1=C2C(=C(SC)C1=O)c1cccc3cccc2c13 [Compound 111]
[7]
  K CO release: 4.63 ± 0.28 h⁻¹

## C#CC(C)(C)OC(=O)C1=C2C(=C(SC)C1=O)c1cccc3cccc2c13 [Compound 112]
[7]
  K CO release: 1.29 ± 0.07 h⁻¹

## C#CCOC(=O)C1=C(c2ccccc2)C(c2ccccc2)=C(c2ccccc2)C1=O [Compound 119]
[7]
  K CO release: 5.89 ± 0.61 h⁻¹

## C#CC(C)OC(=O)C1=C(c2ccccc2)C(c2ccccc2)=C(c2ccccc2)C1=O (centres unmarked) [Compound 120]
[7]
  K CO release: 9.4 ± 0.02 h⁻¹

## C#CC(C)Oc1ccccc1C1=C2C(=C(C(=O)N3CCOCC3)C1=O)c1cccc3cccc2c13 (centres unmarked) [Compound 125]
[7]
  K CO release: 0.10 ± 0.003 h⁻¹

## C#CCN(c1ccccc1C1=C2C(=C(C(=O)N3CCOCC3)C1=O)c1cccc3cccc2c13)S(C)(=O)=O [Compound 127]
[7]
  K CO release: 0.88 ± 0.01 h⁻¹

## O=C1C(c2ccccc2)=C(c2ccccc2)C(c2ccccc2)=C1c1ccccc1 [TPCPD]
[2]; 8 h, 50 μM
  toxicity (Triton 0.1% = 100%): 44%
[2]; 8 h, 100 μM
  toxicity (Triton 0.1% = 100%): 49%
[2]; 24 h, concentrations higher than 12.5 μM
  cytotoxicity: more than 50%
[8]; CH3CN, r.t.
  k2 second order rate constant: 0.26 M⁻¹ s⁻¹
[8]; DCE, r.t.
  k2 second order rate constant: 0.17 M⁻¹ s⁻¹
[8]; Dioxane, r.t.
  k2 second order rate constant: 0.096 M⁻¹ s⁻¹
[8]; MeOH, 37° C.
  k2 second order rate constant: 1.1 M⁻¹ s⁻¹
[8]; MeOH, r.t.
  k2 second order rate constant: 0.50 M⁻¹ s⁻¹

## C1#CCCCCCC1 [cyclooctyne]
[1]
  time in which reaction with TPCPD finished: 15 min

## fluorocyclooctyne [fluorocycolooctyne]
[1]
  time after which reaction with TPCPD had not reached completion: > 24 h

From patent publication US11420994B2, “Carbon-monoxide-releasing molecules and therapeutic applications thereof” (GEORGIA STATE UNIVERSITY RESEARCH FOUNDATION, INC., priority 2016, dated 2022)
